Experimental data from patent US20240091328A1, “FORMULATIONS AND METHODS FOR MHC-I RESTRICTED EPITOPE IMMUNIZATION” (The Research Foundation for The State University of New York, priority 2021, published 2024).

Tests used:
TC-1 cells = assay: Therapeutic vaccine tumor model, subcutaneous TC-1; format: in vivo, C57BL/6 mice; details: E7HHH49-57 admixed with poly(I:C), up to 20 μg peptide
Description: (§1) FIG. 23. Immunization with E7HHH49-57-admixed with CPQ inhibits tumor growth in a therapeutic setting more potently than poly(I:C). C57BL/6 mice were inoculated with TC-1 cells subcutaneously on day 0; then different vaccines were given 2 days post-tumor inoculation. Blood was collected 18 days post-tumor inoculation for CD8^+ T cell analyses. (A) Tumor growth of mice that vaccinated with indicated vaccine. (B) Tumor sizes of mice on day 19. (C) Survival of mice. (D) Percentage of CD8^+E749-57 tet^+ cells in the blood. Error bars show mean+/−std. dev. for n=5 per group. * p<0.05, ** p<0.01 and **** p<0.0001, analyzed by (C) long rank test or (D) one-way ANOVA with Bonferroni multiple comparisons post-test.
(§2) Since CPQ/E7HHH49-57 was effective in a prophylactic setting, we next assessed the vaccine on established TC-1 tumors, which is also the setting in which most cancer vaccines would be initially tested clinically. Poly(I:C) was used as an adjuvant comparator. For poly(I:C), the synthetic short peptide dose ranged from […] per mouse while the poly(I:C) dose remained fixed at […]. For the CPQ liposome adjuvant, the peptide dosing varied from […] per mouse. Given that the ratio of liposomes to peptide was fixed, this corresponds to a 3D6A-PHAD dose and QS-21 dose ranging from 1.6 to 0.16 μg, along with a CoPoP dose ranging from 4 to 0.4 μg. […]

[1] = tested on: E749-57 specific CD8^+ T cells; assay: E749-57 tetramer staining of CD8+ T cells in blood; format: in vivo, C57BL/6 mice; details: E7HHH49-57 admixed with poly(I:C), 19 days post-tumor inoculation
Description: as §1, with “Blood was collected 18 days post-tumor inoculation for CD8^+ T cell analyses.” left out
as §2

[2] = tested on: AH1-specific CD8^+ T cells; assay: AH1 tetramer staining of CD8+ T cells after immunization; format: in vivo, BALB/c mice; details: CPQ with 1 μg total peptide, days 0 and 7, blood day 14
Protocol: In vivo immunization: Murine studies were performed according to protocols approved by the University at Buffalo IACUC. 5-6 week-old female BALB/c mice (Charles River Laboratories, strain BALB/cAnNCrl) were immunized intramuscularly on the right hind leg. BALB/cJ mice (Jackson Laboratories) were used in this study only for DNA sequencing where indicated.
For tetramer staining, immunized mice were analyzed for the percentages of tumor Ag-specific CD8^+ T cells by a tetramer staining assay. H-2L^d-restricted AH1 ([…]) peptide was complexed with MHC-I (H-2L^d) and conjugated with PE (the NIH Tetramer core facility). 60 μL of blood incubated with the AH1 tetramer for 1 hr at 4° C. (100× dilution), then incubated with CD8a, MHC-II (IA/IE), B220, CD4, CD44 and CD62L antibodies for 30 min at 4° C. (1000× dilution). Red blood cells were lysed by cell lysis buffer for 5 mins then cells were centrifuged at 500×g for another 5 min. The cell pellets were washed twice for flow cytometry analysis. For tetramer staining of splenocytes, 1×10^6 cells were incubated with tetramer and antibodies in the same condition as blood, and then washed twice for flow cytometry analysis. Flow cytometry studies were carried out using a BD LSRFortessam X-20 cytometer. Flowjo (version 10) software was used for data analysis.

Substance	Time within which tumors of all mice reached the 1 cm endpoint (TC-1 cells)	Ag-specific CD8^+ T cells in the blood [1]	CD8^+ T cells that were Ag specific (AH1 tet^+) [2]
Polyinosinic:polycytidylic acid [poly(I:C)]	≤ 60 days	almost no	–
SPSYVYHQF [AH1]	–	–	did not elicit detectable amount
